The text below walks through data of patent US20090264415A2 (priority 2004, published 2009).

The structures appear in SMILES notation.

One experiment concerns peripheral blood mononuclear cells (PBMC) stimulated with allogeneic PBMC or EBV-transformed human B cells (RPMI1788). As to the kind of experiment: Mixed lymphocyte reaction (MLR) assay. It counts as cell-based. As to conditions: 50% suppression of the MLR, [3H]-thymidine incorporation; read-out: MLR. How it is done:
Pyrido[3,2-d]pyrimidine derivatives were first dissolved (10 mM) in dimethyl-sulfoxide (hereinafter referred as DMSO) and further diluted in culture medium before use for the following in vitro experiments. […] Some pyrido[3,2-d]pyrimidine derivatives described herein were tested in the following mixed lymphocyte reaction (MLR) assay.
Peripheral blood mononuclear cells (hereinafter referred as PBMC) were isolated from heparinized peripheral blood by density gradient centrifugation over Lymphoprep (Nycomed, Maorstua, Norway). Allogeneic PBMC or Eppstein-Barr Virus-transformed human B cells [commercially available under the trade name RPM11788 (ATCC name CCL156)] which strongly express B7-1 and B7-2 antigens were used as stimulator cells after irradiation with 30 Gy. MLR was performed in triplicate wells. After 5 days incubation at 37° C., 1 μCi [^3H]-thymidine was added to each cup. After a further 16 hours incubation, cells were harvested and counted in a β-counter. Inhibition of proliferation by a compound described in some of the present examples was counted while using the formula: [formula] wherein cpm is the thymidine count per minute. The MLR assay is regarded by those skilled in the art as an in vitro analogue of the transplant rejection since it is based on the recognition of allogeneic major histocompatibility antigens on the stimulator leukocytes, by responding lymphocytes.
In general terms: Uptake of a labelled nucleoside into DNA is a usual measure of proliferation.
Turning to `COc1ccc(-c2ccc3nc(Cl)nc(N4CCN(C(=O)Nc5cccc(C)c5)CC4)c3n2)cc1OC` [Example 14], the IC50 turned out to be 66 nM. Turning to `COc1ccc(-c2ccc3nc(OCCOc4ccccc4)nc(N4CCN(C(=O)Nc5cccc(C)c5)CC4)c3n2)cc1OC` [Example 18], the IC50 was 900 nM. For the compound `COc1ccc(-c2ccc3nc(N)nc(N4CCN(C(=O)COc5ccccc5)CC4)c3n2)cc1OC` [Example 60, 2-amino-4-[(N-phenoxy-acetyl)-piperazin-1-yl]-6-(3,4-dimethoxyphenyl)-pyrido[3,2-d]pyrimidine], the IC50 came to 53 nM.

For `O=C(Nc1cccc(Cl)c1)N1CCN(c2ncnc3ccc(Cl)nc23)CC1` [Example 70, 4-[(N-3-chlorophenylcarbamoyl)-piperazin-1-yl]-6-chloro-pyrido[3,2-d]pyrimidine], the IC50 is 3400 nM.

Take `COc1ccc(-c2ccc3nc(N4CCOCC4)nc(N4CCN(C(=O)Nc5cccc(C)c5)CC4)c3n2)cc1OC` [Example 88]: the IC50 came to 400 nM.

Regarding `CCCCOc1nc(N2CCN(C(=O)Nc3cccc(C)c3)CC2)c2nc(-c3ccc(OC)c(OC)c3)ccc2n1` [Example 89, 2-butoxy-4-[(N-3-methyl-phenylcarbamoyl)-piperazin-1-yl]-6-(3,4-dimethoxyphenyl)-pyrido[3,2-d]pyrimidine], the IC50 worked out at 2000 nM.

Regarding `COc1ccc(-c2ccc3nc(Nc4ccc(C)cc4)nc(N4CCN(C(=O)Nc5cccc(C)c5)CC4)c3n2)cc1OC` [Example 91, 2-(p-tolylamino)-4-[(N-3-methylphenylcarbamoyl)-piperazin-1-yl]-6-(3,4-dimethoxy-phenyl)-pyrido[3,2-d]pyrimidine], the IC50 turned out to be 800 nM.

Turning to `COc1ccc(-c2ccc3nc(Nc4ccc(F)c(Cl)c4)nc(N4CCN(C(=O)Nc5cccc(C)c5)CC4)c3n2)cc1OC` [Example 92], the IC50 amounted to 1200 nM. Still for that read-out and setting: as for `COc1cc(-c2ccc3nc(N)nc(N4CCOCC4)c3n2)ccc1OC1CCCC1` [Example 98, 2-amino-4-(N-morpholino)-6-(4-cyclopentyloxy-3-methoxyphenyl)-pyrido[3,2-d]pyrimidine], the figure is 7600 nM; as for `COc1ccc(-c2ccc3ncnc(N4CCN(C(=O)Nc5ccc(F)cc5)CC4)c3n2)cc1OC` [Example 111, 4-[(N-4-fluorophenylcarbamoyl)-piperazin-1-yl]-6-(3,4-dimethoxyphenyl)-pyrido[3,2-d]pyrimidine], 30 nM.

Consider `Nc1nc(N2CCN(CCOc3ccccc3)CC2)c2nc(-c3ccc(F)cc3)ccc2n1` [Example 205], for which the IC50 amounted to 5500 nM.

The experiment is the same for the next values; noted with them: Homo sapiens, RPMI-1788; 50% suppression of the MLR, [3H]-thymidine incorporation; read-out: MLR.
Turning to `Nc1nc(N2CCOCC2)c2nc(-c3ccc(Cl)c(Cl)c3)ccc2n1` [184/231, 2-amino-4-(morpholino)-6-(3,4-dichlorophenyl)-pyrido[3,2-d]pyrimidine], the IC50 is 3900 nM. Consider `COc1ccc(Cl)c(Nc2nc(N)nc3ccc(-c4ccc(OC)c(OC)c4)nc23)c1` [Example 30, 2-amino-4-(2-chloro-5-methoxy-anilino)-6-(3,4-dimethoxyphenyl)pyrido[3,2-d]pyrimidine], for which the IC50 was 10000 nM. With `COc1cc(-c2ccc3nc(N)nc(N)c3n2)ccc1O` [Example 93, 2,4-diamino-6-(4-hydroxy-3-methoxyphenyl)-pyrido[3,2-d]pyrimidine], the IC50 stood at 5100 nM. On the same count and under the same terms, then `CC(=O)Nc1nc(-c2nc[nH]n2)c2nc(-c3ccc(Cl)c(Cl)c3)ccc2n1` [Example 145, 2-acetamido-4-(1,2,4-triazolyl)-6-(3,4-dichloro-phenyl)pyrido-[3,2-d]pyrimidine], with 5300 nM. For the compound `Nc1nc(N2CCN(C(=O)NCc3ccc(Cl)cc3)CC2)c2nc(-c3ccc(F)cc3)ccc2n1` [Example 189, 2-amino-4-[(N-4-chloro-benzylcarbamoyl)-piperazin-1-yl]-6-(4-fluorophenyl)-pyrido[3,2-d]pyrimidine], the IC50 came out at 500 nM. Regarding `Nc1nc(N2CCN(C(=O)c3ccco3)CC2)c2nc(-c3ccc4c(c3)OCO4)ccc2n1` [Example 192, 2-amino-4-[N-(2-furoyl)-piperazin-1-yl]-6-(3,4-methylenedioxyphenyl)-pyrido[3,2-d]pyrimidine], the IC50 was 8100 nM. As to `Nc1nc(N2CCN(C(=O)c3ccco3)CC2)c2nc(-c3ccc4c(c3)OCCO4)ccc2n1` [Example 203, 2-amino-4-[N-(2-furoyl)-piperazin-1-yl]-6-(1,4-benzo-dioxane)-pyrido[3,2-d]pyrimidine], the IC50 was 5700 nM. On to `Nc1nc(N2CCN(c3ccc(F)cc3)CC2)c2nc(-c3ccc(F)cc3)ccc2n1` [Example 204, 2-amino-4-[N-(4-fluoro-phenyl)-piperazin-1-yl]-6-(4-fluorophenyl)-pyrido[3,2-d]pyrimidine], for which the IC50 amounted to 6400 nM. Take `COc1ccc(-c2ccc3nc(N)nc(N4CC[C@H](NC(=O)Nc5cccc(C)c5)C4)c3n2)cc1OC` [Example 221]: the IC50 stood at 1300 nM.

Turning to `Nc1nc(N2CCOCC2)c2nc(Cl)ccc2n1` [Example 230, 2-amino-6-chloro-4-morpholino-pyrido[3,2-d]pyrimidine], the IC50 was above 10000 nM.

As to `COc1cccc(-c2ccc3nc(N)nc(N4CCOCC4)c3n2)n1` [Example 236, 2-amino-4-morpholino-6-(6-methoxy-2-pyridinyl)-pyrido[3,2-d]pyrimidine], the IC50 worked out at 5300 nM. On to `Nc1nc(N2CCOCC2)c2nc(-c3ccc(F)c(Cl)c3)ccc2n1` [Example 242, 2-amino-4-morpholino-6-(3-chloro-4-fluorophenyl)-pyrido[3,2-d]pyrimidine], for which the IC50 came to 2600 nM. Still for that read-out and setting: then `Nc1nc(N2CCOCC2)c2nc(-c3ccc(F)cc3)ccc2n1` [Example 245, 2-amino-4-morpholino-6-(4-fluorophenyl)-pyrido[3,2-d]pyrimidine], with 2300 nM; and `COc1ccc(-c2ccc3nc(N)nc(N)c3n2)cc1OC` [Example 256, 2,4-diamino-6-(3,4-dimethoxyphenyl)-pyrido[3,2-d]pyrimidine], with 600 nM. Turning to `COc1ccc(-c2ccc3nc(N)nc(N4CC[C@@H](NC(=O)Nc5cccc(C)c5)C4)c3n2)cc1OC` [Example 260], the IC50 came out at 2100 nM. For the compound `COc1ccc(-c2ccc3nc(N)nc(N4CCC(O)(c5ccc(Cl)cc5)CC4)c3n2)cc1OC` [Example 269, 2-amino-4-(4-chlorophenyl-4-hydroxypiperidin-1-yl)-6-(3,4-dimethoxyphenyl)-pyrido[3,2-d]pyrimidine], the IC50 was 3100 nM.

Still in this experiment, the particulars now being: Homo sapiens, RPMI-1788; MLR assay of example 319; read-out: MLR IC50.
As to `CC(C)(C)OC(=O)NC(Cc1ccc(Cl)cc1)C(=O)N1CCN(c2nc(N)nc3ccc(-c4ccc(F)cc4)nc23)CC1` (stereo in doubt) [Example 477, (S)-[2-{4-[2-amino-6-(4-fluorophenyl)-pyrido[3,2-d]pyrimidin-4-yl]-piperazin-1-yl}-1-(4-chlorobenzyl)-2-oxoethyl]-carbamic acid tert-butyl ester], the IC50 was found to be 4900 nM. As to `Nc1nc(N2CCN(C(=O)C(N)Cc3ccc(Cl)cc3)CC2)c2nc(-c3ccc(F)cc3)ccc2n1` (stereo in doubt) [Example 488, (S)-2-amino-4-{4-[3-(4-chlorophenyl)-2-aminopropionyl]piperazin-1-yl}-6-(4-fluorophenyl)-pyrido[3,2-d]pyrimidine], the IC50 turned out to be 4300 nM. Take `Nc1nc(N2CCN(C(=O)COc3ccc4ccccc4c3)CC2)c2nc(-c3ccc(F)cc3)ccc2n1` [Example 383, 2-amino-4-[4-(2-naphthoxyacetyl)piperazin-1-yl]-6-(4-fluorophenyl)-pyrido[3,2-d]pyrimidine]: the IC50 stood at 500 nM. For the compound `Cc1cccc(OCC(=O)N2CCN(c3nc(N)nc4ccc(-c5ccc(F)cc5)nc34)CC2)c1` [Example 384, 2-amino-4-[4-(3-methylphenoxyacetyl)piperazin-1-yl]-6-(4-fluorophenyl)-pyrido[3,2-d]pyrimidine], the IC50 was 50 nM. As for `Nc1nc(N2CCN(C(=O)COc3cccc(Cl)c3)CC2)c2nc(-c3ccc(F)cc3)ccc2n1` [Example 385, 2-amino-4-[4-(3-chlorophenoxyacetyl)piperazin-1-yl]-6-(4-fluorophenyl)-pyrido[3,2-d]pyrimidine], the IC50 was determined as 90 nM.

For `Nc1nc(N2CCN(C(=O)COc3ccc(Cl)cc3Cl)CC2)c2nc(-c3ccc(F)cc3)ccc2n1` [Example 386, 2-amino-4-[4-(2,4-dichlorophenoxyacetyl)piperazin-1-yl]-6-(4-fluorophenyl)-pyrido[3,2-d]pyrimidine], the IC50 came out at 400 nM. On to `Nc1nc(N2CCN(C(=O)COc3ccc(F)cc3)CC2)c2nc(-c3ccc(F)cc3)ccc2n1` [Example 387, 2-amino-4-[4-(4-fluorophenoxyacetyl)piperazin-1-yl]-6-(4-fluorophenyl)-pyrido[3,2-d]pyrimidine], for which the IC50 was 200 nM. On the same count and under the same terms, as for `Nc1nc(N2CCN(C(=O)COc3ccc(Br)cc3)CC2)c2nc(-c3ccc(F)cc3)ccc2n1` [Example 388, 2-amino-4-[4-(4-bromophenoxyacetyl)piperazin-1-yl]-6-(4-fluorophenyl)-pyrido[3,2-d]pyrimidine], the figure is 50 nM.

Consider `COc1ccc(-c2ccc3nc(N)nc(N4CCN(C(=O)CC(C)(C)C)CC4)c3n2)cc1OC` [Example 392, 2-amino-4-[4-(3,3-dimethylbutyryl)piperazin-1-yl]-6-(3,4-dimethoxyphenyl)-pyrido[3,2-d]pyrimidine], for which the IC50 came to 300 nM.
